Assay results: patent US10443054B2, “Methods for identifying and treating invasive/metastatic breast cancers” (Massachusetts Institute of Technology, priority 2016, dated 2019)

Assays:
[1] = system: LM2 cells; test: Extravasation (experimental lung) metastasis assay, tail vein injection; assay type: in vivo, mice; settings: LM2 cells stably expressing shRNA injected via tail vein, 28 days; vs Ctrl-shRNA
Method: For the experimental lung metastasis assay, 5×10^4 cells in 100 μl of Hank's Balanced Salt Solution were injected into the lateral tail vein of 6- to 8-week-old female NOD/SCID/IL2RV-null mice. The mice were sacrificed 28 days post-injection and lungs were inflated with 3.8% formaldehyde imaged with a fluorescence microscope and subsequently fixed overnight with 3.8% formaldehyde. ZsGreen-positive foci were counted in the left pulmonary lobe using ImageJ and counts were manually curated as needed.

[2] = system: MDA-MB-231 cells; test: Inverted invasion assay through matrigel towards EGF; settings: nuclei of invading cells above 40 μm

## Lpd-shRNA2: shRNA targeting human Lpd, TTCCCATACTTTGCAATGCGG
[1]
  number of ZsGreen-positive metastatic foci in the left pulmonary lobe: not significant

## CNC(=O)[C@H](Cc1c[nH]c2ccccc12)NC(=O)[C@@H](CC(=O)NO)CC(C)C [MMP inhibitor, GM6001]
[2]; MDA-MB-231 expressing GFP-Lpd, 10 μM GM6001 vs DMSO
  invasion of Lpd overexpressing cells: reduced invasion
[2]; MDA-MB-231 expressing GFP, 10 μM GM6001 vs DMSO
  invasion of GFP expressing control cells: reduced invasion

## Cc1ccc(NC(=O)c2ccc(CN3CCN(C)CC3)cc2)cc1Nc1nccc(-c2cccnc2)n1 [ST1571, STI-571]
[2]; MDA-MB-231, Dasatinib 10 nM, STI571 10 μM, 72 hours vs DMSO
  breast cancer cell invasiveness towards EGF: impaired
